Laboratory results published in article PMC7914897, “Cytotoxic Potential of a-Azepano- and 3-Amino-3,4-SeCo-Triterpenoids” (International Journal of Molecular Sciences, 2021).
Read-outs that look alike come from different tables or passages of the source.

Experiments:
[1] = system: HS 578T (Breast cancer); test: NCI-60 screen (SRB, 48 h); settings: Homo sapiens; for IC (TGI): 48 h, read-out: TGI; for CC50: read-out: LC50
[2] = system: TK-10 (Renal cancer); test: NCI-60 screen (SRB, 48 h); settings: Homo sapiens; for GI50: TK-10; for IC (TGI): TK-10, 48 h, read-out: TGI; for CC50: TK-10, read-out: LC50
[3] = system: Renal Cancer subpanel; test: NCI-60 screen, subpanel; settings: Homo sapiens; for IC (TGI): 48 h, read-out: TGI MG_MID; for GI50: read-out: GI50 MG_MID; for CC50: read-out: LC50 MG_MID
[4] = system: COLO 205 (Colon cancer); test: NCI-60 screen (SRB, 48 h); settings: Homo sapiens; for GI50: COLO 205; for IC (TGI): COLO 205, 48 h, read-out: TGI
[5] = system: HCC-2998 (Colon cancer); test: NCI-60 screen (SRB, 48 h); settings: Homo sapiens; for GI50: HCC 2998; for IC (TGI): HCC 2998, 48 h, read-out: TGI
[6] = system: SF-268 (CNS cancer); test: NCI-60 screen (SRB, 48 h); settings: Homo sapiens; for GI50: SF-268; for IC (TGI): SF-268, 48 h, read-out: TGI; for CC50: SF-268, read-out: LC50
[7] = system: panel of approximately 60 cancer cell lines; test: NCI-60 screen (SRB, 48 h), full panel; settings: for activity at 10 µM / IC (TGI): 48 h; for IC (TGI): read-out: TGI MG_MID60, average over all cell lines
[8] = system: UACC-62 (Melanoma); test: NCI-60 screen (SRB, 48 h); settings: Homo sapiens; for GI50: UACC-62; for IC (TGI): UACC-62, 48 h, read-out: TGI
[9] = system: OVCAR-5 (Ovarian cancer); test: NCI-60 screen (SRB, 48 h); settings: Homo sapiens; for GI50: OVCAR-5; for IC (TGI): OVCAR-5, 48 h, read-out: TGI
[10] = system: NCI-H522 (NSC lung cancer); test: NCI-60 screen (SRB, 48 h); settings: Homo sapiens; for GI50: NCI-H522; for IC (TGI): NCI-H522, 48 h, read-out: TGI
[11] = system: MDA-MB-31/ATCC (Breast cancer); test: NCI-60 screen (SRB, 48 h); settings: Homo sapiens; for IC (TGI): 48 h, read-out: TGI
[12] = system: CAKI-1 (Renal cancer); test: NCI-60 screen (SRB, 48 h); settings: Homo sapiens; for GI50: CAKI-1; for IC (TGI): CAKI-1, 48 h, read-out: TGI; for CC50: CAKI-1, read-out: LC50
[13] = system: OVCAR-3 (Ovarian cancer); test: cells; settings: Homo sapiens; for GI50: OVCAR-3; for IC (TGI): OVCAR-3, 48 h, read-out: TGI
[14] = system: DU-145 (Prostate cancer); test: NCI-60 screen (SRB, 48 h); settings: Homo sapiens; for GI50: DU-145; for IC (TGI): DU-145, 48 h, read-out: TGI; for CC50: DU-145, read-out: LC50
[15] = system: NCI-H23 (NSC lung cancer); test: NCI-60 screen (SRB, 48 h); settings: Homo sapiens; for GI50: NCI-H23; for IC (TGI): NCI-H23, 48 h, read-out: TGI
[16] = system: SK-MEL-5 (Melanoma); test: NCI-60 screen (SRB, 48 h); settings: for GI50: SK-MEL-5; for IC (TGI): SK-MEL-5, 48 h, read-out: TGI
[17] = system: OVCAR-8 (Ovarian cancer); test: NCI-60 screen (SRB, 48 h); settings: Homo sapiens; for GI50: OVCAR-8
[18] = system: UACC-257 (Melanoma); test: NCI-60 screen (SRB, 48 h); settings: Homo sapiens; for GI50: UACC-257; for IC (TGI): UACC-257, 48 h, read-out: TGI
[19] = system: Leukemia subpanel; test: cells; settings: Homo sapiens; for IC (TGI): 48 h, read-out: TGI MG_MID; for GI50: read-out: GI50 MG_MID; for CC50: read-out: LC50 MG_MID
[20] = system: A549/ATCC (NSC lung cancer); test: NCI-60 screen (SRB, 48 h); settings: Homo sapiens; for GI50: A549; for IC (TGI): A549, 48 h, read-out: TGI
[21] = system: NCI-H226 (NSC lung cancer); test: NCI-60 screen (SRB, 48 h); settings: Homo sapiens; for GI50: NCI-H226; for IC (TGI): NCI-H226, 48 h, read-out: TGI
[22] = system: HCT-15 (Colon cancer); test: NCI-60 screen (SRB, 48 h); settings: Homo sapiens; for GI50: HCT-15; for IC (TGI): HCT-15, 48 h, read-out: TGI
[23] = system: IGROV1 (Ovarian cancer); test: NCI-60 screen (SRB, 48 h); settings: Homo sapiens; for GI50: IGROV-1; for IC (TGI): IGROV-1, 48 h, read-out: TGI
[24] = system: HOP-62 (NSC lung cancer); test: NCI-60 screen (SRB, 48 h); settings: Homo sapiens; for GI50: HOP-62; for IC (TGI): HOP-62, 48 h, read-out: TGI
[25] = system: PC-3 (Prostate cancer); test: NCI-60 screen (SRB, 48 h); settings: Homo sapiens; for GI50: PC-3; for IC (TGI): PC-3, 48 h, read-out: TGI
[26] = system: SNB-19 (CNS cancer); test: NCI-60 screen (SRB, 48 h); settings: Homo sapiens; for GI50: SNB-19; for IC (TGI): SNB-19, 48 h, read-out: TGI
[27] = system: NCI-H322M (NSC lung cancer); test: NCI-60 screen (SRB, 48 h); settings: Homo sapiens; for IC (TGI): 48 h, read-out: TGI; for CC50: read-out: LC50
[28] = Homo sapiens, read-out: Mean Growth, %
[29] = Homo sapiens, read-out: Range of Growth, %
[30] = Homo sapiens, read-out: GI50 MG_MID60
[31] = Homo sapiens, read-out: GI50 against all human tumor cell lines

## Cc1ccc(S(=O)(=O)OC[C@]23CCC(C)(C)C[C@H]2C2=CC[C@@H]4[C@@]5(C)CCCNC(C)(C)[C@@H]5CC[C@@]4(C)[C@]2(C)CC3)cc1 [Compound 15]
[1]
  GI50: 1.82 µM
  IC (TGI): 4.08 µM
  CC50: 9.14 µM
[2]
  GI50: 1.77 µM
  IC (TGI): 3.33 µM
  CC50: 6.27 µM
[3]
  IC (TGI): 5.44 µM
  GI50: 2.13 µM
  CC50: 14.3 µM
[4]
  GI50: 1.63 µM
  IC (TGI): 3.19 µM
[5]
  GI50: 1.63 µM
  IC (TGI): 3.21 µM
[6]
  GI50: 2.32 µM
  IC (TGI): 8.44 µM
  CC50: 67.9 µM
[7]; 1 dose 10 µM
  Positive Cytostatic Effect (cell lines with percent growth 0 to 50 / total): 17/60
  Positive Cytotoxic Effect (cell lines with percent growth < 0 / total): 14/60
  number of cancer cell lines the compound was active against: 22 cell lines
[7]; [28]
  activity at 10 µM: 37.2%
[7]; [29]
  activity at 10 µM: -87.7 to 104%
[7]; Homo sapiens
  IC (TGI): 3.8 µM
[7]; [30]
  GI50: 1.99 µM
[7]; [31]
  GI50: < 15 µM
[7]; Homo sapiens, read-out: GI50 against the most sensitive cell lines
  GI50: 0.2 to 0.94 µM
[7]; Homo sapiens, read-out: LC50 MG_MID60, average over all cell lines
  CC50: 18.9 µM
[8]
  GI50: 1.68 µM
  IC (TGI): 3.2 µM
[9]
  GI50: 1.61 µM
  IC (TGI): 3.01 µM
[10]
  GI50: 1.69 µM
  IC (TGI): 3.38 µM
[10]; NCI-H522, read-out: LC50
  CC50: 6.78 µM
[11]
  GI50: 1.91 µM
  IC (TGI): 4.12 µM
[12]
  GI50: 1.45 µM
  IC (TGI): 2.82 µM
  CC50: 5.46 µM
[13]
  GI50: 1.84 µM
  IC (TGI): 3.51 µM
[14]
  GI50: 1.79 µM
  IC (TGI): 3.37 µM
  CC50: 6.35 µM
[15]
  GI50: 1.7 µM
  IC (TGI): 3.27 µM
[16]; Homo sapiens
  GI50: 1.9 µM
  IC (TGI): 3.68 µM
[17]
  GI50: 1.99 µM
[18]
  GI50: 1.85 µM
  IC (TGI): 3.54 µM
[19]
  IC (TGI): 4.24 µM
  GI50: 1.57 µM
  CC50: > 100 µM
[20]
  GI50: 1.83 µM
  IC (TGI): 3.66 µM
[21]
  GI50: 1.71 µM
  IC (TGI): 3.77 µM
[22]
  GI50: 1.65 µM
  IC (TGI): 3.2 µM
[23]
  GI50: 1.41 µM
  IC (TGI): 3.08 µM
[24]
  GI50: 1.81 µM
  IC (TGI): 3.56 µM
[25]
  GI50: 1.66 µM
  IC (TGI): 3.16 µM
[26]
  GI50: 1.72 µM
  IC (TGI): 3.54 µM
[27]
  GI50: 14.9 µM
  IC (TGI): 4.05 µM
  CC50: > 100 µM

## C=C(C)C1CCC2(CO)CCC3(C)C(CCC4C5(C)CCCNC(C)(C)C5CCC43C)C12 (centres unmarked) [Compound 1, Azepanobetulin]
[1]
  GI50: 1.99 µM
  IC (TGI): 4.79 µM
  CC50: 31 µM
[2]
  GI50: 1.76 µM
  IC (TGI): 3.5 µM
  CC50: 6.96 µM
[3]
  IC (TGI): 3.43 µM
  GI50: 1.71 µM
  CC50: 9.33 µM
[4]
  GI50: 1.54 µM
  IC (TGI): 3.24 µM
[4]; COLO 205, read-out: LC50
  CC50: 6.82 µM
[5]
  GI50: 1.51 µM
  IC (TGI): 2.93 µM
[5]; HCC 2998, read-out: LC50
  CC50: 5.68 µM
[6]
  GI50: 1.74 µM
  IC (TGI): 3.54 µM
  CC50: 7.19 µM
[7]; 1 dose 10 µM
  Positive Cytostatic Effect (cell lines with percent growth 0 to 50 / total): 27/59
  number of cancer cell lines the compound was active against: 28 cell lines
[7]; [28]
  activity at 10 µM: 20.8%
[7]; [29]
  activity at 10 µM: -82.5 to 84.4%
[7]; Homo sapiens
  IC (TGI): 3.34 µM
[7]; [30]
  GI50: 1.7 µM
[7]; [31]
  GI50: < 3 µM
[8]
  GI50: 1.82 µM
  IC (TGI): 3.25 µM
[8]; UACC-62, read-out: LC50
  CC50: 5.8 µM
[9]
  GI50: 1.51 µM
  IC (TGI): 2.89 µM
[9]; OVCAR-5, read-out: LC50
  CC50: 5.52 µM
[10]
  GI50: 1.65 µM
  IC (TGI): 3.42 µM
[11]
  GI50: 1.77 µM
  IC (TGI): 3.21 µM
[11]; read-out: LC50
  CC50: 5.8 µM
[12]
  GI50: 1.55 µM
  IC (TGI): 2.89 µM
  CC50: 5.4 µM
[13]
  GI50: 1.66 µM
  IC (TGI): 3.13 µM
[13]; OVCAR-3, read-out: LC50
  CC50: 5.91 µM
[14]
  GI50: 3.02 µM
  IC (TGI): 3.02 µM
  CC50: 5.58 µM
[15]
  GI50: 1.71 µM
  IC (TGI): 3.39 µM
[15]; NCI-H23, read-out: LC50
  CC50: 6.68 µM
[16]; Homo sapiens
  GI50: 1.38 µM
  IC (TGI): 2.7 µM
[16]; Homo sapiens, SK-MEL-5, read-out: LC50
  CC50: 5.28 µM
[16]; SK-MEL-5, 1 dose 10 µM
  Growth % of the Most Sensitive Cell Lines: −82.49%
[17]
  GI50: 1.83 µM
[17]; OVCAR-8, 48 h, read-out: TGI
  IC (TGI): 3.51 µM
[17]; OVCAR-8, read-out: LC50
  CC50: 6.73 µM
[18]
  GI50: 1.95 µM
  IC (TGI): 3.73 µM
[18]; UACC-257, read-out: LC50
  CC50: 7.14 µM
[19]
  IC (TGI): 4.3 µM
  GI50: 1.69 µM
  CC50: > 100 µM
[20]
  GI50: 1.73 µM
  IC (TGI): 3.24 µM
[20]; A549, read-out: LC50
  CC50: 6.08 µM
[21]
  GI50: 1.98 µM
  IC (TGI): 4.09 µM
[21]; NCI-H226, read-out: LC50
  CC50: 8.43 µM
[22]
  GI50: 1.39 µM
  IC (TGI): 2.77 µM
[22]; HCT-15, read-out: LC50
  CC50: 5.52 µM
[23]
  GI50: 1.65 µM
  IC (TGI): 3.26 µM
[23]; IGROV-1, read-out: LC50
  CC50: 6.44 µM
[24]
  GI50: 1.81 µM
  IC (TGI): 3.42 µM
[24]; HOP-62, read-out: LC50
  CC50: 6.46 µM
[25]
  GI50: 2.94 µM
  IC (TGI): 2.94 µM
[25]; PC-3, read-out: LC50
  CC50: 5.74 µM
[26]
  GI50: 1.75 µM
  IC (TGI): 3.2 µM
[26]; SNB-19, read-out: LC50
  CC50: 5.86 µM
[27]
  GI50: 1.63 µM
  IC (TGI): 3.03 µM
  CC50: 5.64 µM
